# Assay results: patent publication US5430023A, “Tripeptide antithrombotic agents” (Eli Lilly and Company, priority 1993, dated 1995)
# Several values for one entry are separate records, joined by “and”; a condition that tells them apart may be missing. Equal values may be shown once. Where a name gives a salt, the structure may show the parent alone. Square brackets hold non-standard residues; d marks the D form. Peptide text beside a SMILES is read from it. * marks the point of attachment. dPhg = N[C@@H](C(=O)O)c1ccccc1; Boc = CC(C)(C)OC(=O)*
# Key:
# [1] = system: arterial thrombosis in the carotid artery; test: Ferric chloride induced arterial thrombosis in the carotid artery of the rat; assay type: in vivo; conditions: infusion from 15 min before to 60 min after FeCl3, NA = Not active at 4 mg/kg/h or at 7 mg/kg/h, the highest doses tested
# Experimental: The antithrombotic activity of representative compounds of the invention was determined in in vivo tests carried out in the rat. The test employed induced arterial thrombosis in the carotid artery of the rat and measured the infusion dose of test compound required to maintain blood flow for fifty minutes past the time of occlusion. The test was performed as follows.
# Arterial thrombosis was induced in the rat by injury of the carotid artery. Topical application of a ferric chloride solution was used to injure the vessel. Male Sprague-Dawley rats (375-450 g) were anesthetized with xylazine (20 mg/kg, s.c.) followed by ketamine HCl (100 mg/kg, s.c.). Animals were laid on a water blanket in which the circulated water was maintained at 37° C. The carotid artery was approached through a midline cervical incision. Careful blunt dissection was used to expose and isolate the vessel from the carotid sheath. A silk suture was pulled underneath the artery to lift the vessel to provide clearance to insert a thermocouple underneath it. […] Small forceps were used to dip discs (3 mm dia) of Whatman No. 1 filter paper into a FeCl3 solution (35%). The discs were cut to equal size using sharpened stainless steel tubing (3 mm i.d.) chucked in a drill press. A saturated disc was placed on each carotid artery above the thermocouple. The time between FeCl3 application and the time at which temperature decreased abruptly was recorded as time to occlusion (TTO) of the vessel. The average time required for both vessels to occlude was used to represent TTO for each animal.
# Test compounds were dissolved in isotonic saline. […]
# The association between vessel occlusion and the abrupt temperature decrease was established by simultaneously recording the temperature and blood flow on the same recorder. […] Baseline temperature and flow velocity (determined with a Directional Pulsed Doppler Flowmeter, Model 545-C, University of Iowa Bioengineering) were recorded before application of 35% ferric chloride. […]
# bovine thrombin [2] = molecular target: T1, bovine thrombin (Bos taurus, UniProt P00735); test: Plasma coagulation assay: thrombin time; assay type: biochemical
# T1 construct: 25 μl of bovine thrombin solution (0.21 mg/ml of thrombostat powder); purchased thrombostat powder
# Experimental: (§1) The anticoagulant activity of the compounds of the invention has been determined in standard tests. The following Table 2 presents the data obtained with representative compounds of the invention in tests used to determine prothrombin time, thrombin time and activated partial thromboplastin time (APTT). The numerical values in the table are the concentrations of the test compounds (ng/ml) required to prolong coagulation by 2-fold in the three tests. The thrombin time evaluation was carried out in plasma and separately determined in a buffer system at pH 7.5.
# (§2) The data presented in Table 2 were obtained using a CoaScreener instrument from Tecan, Inc. in the assay protocols listed below.
# 50 μl bovine thrombin (2 NIH
# [3] = system: plasma coagulation (thromboplastin); test: Plasma coagulation assay: prothrombin time; assay type: biochemical
# Experimental: The numerical values in the table are the concentrations of the test compounds (ng/ml) required to prolong coagulation by 2-fold in the three tests. The thrombin time evaluation was carried out in plasma and separately determined in a buffer system at pH 7.5.
# as §2
# 50 μl thromboplastin (Dade)
# bovine thrombin [4] = molecular target: T1, bovine thrombin; test: Inhibition of thrombin amidase activity (chromogenic substrate), bovine thrombin; assay type: biochemical; conditions: apparent equilibrium constant inhibitor-thrombin, mean over a range of concentrations
# Experimental: The data in the table were obtained in an assay in which thrombin hydrolyzes the chromogenic substrate, N-benzoyl-D-phenylalanyl-L-valyl-L-arginyl-p-nitroanilide.
# The assay was carried out in 50 μl buffer (0.03M Tris, 0.15M NaCl, pH 7.4) with 25 μl of bovine thrombin solution (0.21 mg/ml of thrombostat powder in 0.06M Tris, 0.3M NaCl, pH 7.4) and 150 μl of an aqueous solution of the chromogenic substrate at a concentration of 0.25 mg/ml. Solutions of test compound (25 μl) at various concentrations were added. […] Standard curves were constructed by plotting free thrombin concentration against hydrolysis rate. […] The amount of free inhibitor in each assay was calculated by subtracting the number of moles of bound thrombin from the number of moles of added inhibitor (test compound).
# (§3) Kass was calculated for a range of concentrations of compounds and the mean value is reported in units of liter per mole.
# [5] = system: plasma coagulation (Actin, CaCl2); test: Plasma coagulation assay: APTT (activated partial thromboplastin time); assay type: biochemical
# Experimental: as §1, §2
# bovine thrombin [6] = molecular target: T1, bovine thrombin; test: Thrombin time in buffer (fibrinogen instead of plasma); assay type: biochemical; conditions: Buffer (pH 7.5)
# Experimental: as §1, §2
# In the Thrombin Time determined in pH 7.4 buffer fibrinogen was used instead of plasma.
# human thrombin = molecular target: T2, human thrombin (Homo sapiens, UniProt P00734); test: Inhibition of thrombin amidase activity (chromogenic substrate), human thrombin; assay type: biochemical; conditions: human thrombin (footnote 2)
# T2 construct: purchased Inzyme Research Laboratories of South Bend, Ind
# Experimental: The compounds provided by the invention (formula 1) inhibit the action of thrombin in man and animals. […] The following Table 1 lists the apparent equilibrium constant (Kass) for interaction between the test compound (inhibitor) and thrombin. The data in the table were obtained in an assay in which thrombin hydrolyzes the chromogenic substrate, N-benzoyl-D-phenylalanyl-L-valyl-L-arginyl-p-nitroanilide.
# The assay was carried out in 50 μl buffer (0.03M Tris, 0.15M NaCl, pH 7.4) with 25 μl of bovine thrombin solution (0.21 mg/ml of thrombostat powder in 0.06M Tris, 0.3M NaCl, pH 7.4) and 150 μl of an aqueous solution of the chromogenic substrate at a concentration of 0.25 mg/ml. Solutions of test compound (25 μl) at various concentrations were added. Rates of hydrolysis of the substrate were measured by monitoring the reactions at 405 nm for the release of p-nitroaniline. […] The bound thrombin (bound to test compound) was calculated by subtracting the amount of free thrombin observed in each assay from the known initial amount of thrombin used in the assay. The amount of free inhibitor in each assay was calculated by subtracting the number of moles of bound thrombin from the number of moles of added inhibitor (test compound). […]
# as §3
Thrombin Amidase Kass × 10^6 (bovine thrombin [4]),Thrombin Amidase Kass × 10^6 (human thrombin),Compound,ED50: infusion dose required to maintain blood flow for 50 min [1],Thrombin Time: concentration required to prolong coagulation by 2fold (bovine thrombin [2]),Prothrombin Time: concentration required to prolong coagulation by 2fold [3],APTT: concentration required to prolong coagulation by 2fold [5],Thrombin Time: concentration required to prolong coagulation by 2fold (bovine thrombin [6]),Thrombin Amidase Kass × 10^6 (bovine thrombin [4]; diacetate salt)
52 × 10^6 1/mole,,"CC(=O)O.CC(=O)O.CC(C)(C)OC(=O)N[C@@H](C(=O)N1CCC[C@H]1C(=O)N[C@H](C=O)CCCNC(=N)N)c1cccc2ccccc12 [Boc-D-1-naphthylglycyl, N-Boc-D-1-naphthylglycyl-Pro-Arg-H diacetate]",6.4 mg/kg/h,230 ng/mL,1225 ng/mL,3100 ng/mL,105 ng/mL,
,,"CC(C)(C)OC(=O)N[C@@H](C(=O)N1CCC[C@H]1C(=O)N[C@H](C=O)CCCNC(=N)N)c1ccccc1 [Boc-D-phenylglycyl, N-(t-Butyloxycarbonyl)-D-phenylglycyl-L-Prolyl-L-Arginine aldehyde (Boc-D-Phg-Pro-Arg-H) diacetate salt] (Boc-[dPhg]-Pro-Arg-aldehyde)",2.9 mg/kg/h,110 ng/mL,667 ng/mL,1169 ng/mL,118 ng/mL,88 × 10^6 1/mole and 73 × 10^6 1/mole
,56 × 10^6 1/mole,"N=C(N)NCCCC(C=O)NC(=O)C1CCCN1C(=O)C1CC2CCCCC2CN1 [D-3-(4aS, 8aS)-Piq-(L)-Pro-(L)-Arg-H]",,,,,,
,214 × 10^6 1/mole,"D-3 -(4aR, 8aR)-Piq-(L)-Pro-(L)-Arg-H",,,,,,
